As a reminder, the EC50 is the midpoint of the concentration-response curve.

The structures appear in SMILES notation. The source made the active and inactive calls. The rule behind the calls is not given here.

The target of this assay is Alkaline phosphatase, placental type (Homo sapiens) (UniProt P05187). As to the kind of experiment: activation of placental alkaline phosphatase – biochemical, uHTS hits, mouse IAP activator project, dose response (AID 488878). The following applies: purified human PLAP enzyme activity.

Turning to `Oc1cc(O)c2c(c1)O[C@H](c1ccc(O)c(O)c1)[C@H](O)C2`, the concentration giving a half-maximal response (EC50) was 51.3 µM.

Regarding `CCn1c(CSc2nc3ccccc3s2)nnc1SCC(=O)c1ccc(O)c(O)c1`, the EC50 was 31.7 µM. On to `O=C(/C=C/c1ccco1)NC(=S)Nc1cccc(C(=O)O)c1`, for which the EC50 is 46.8 µM.

Turning to `O=C(O)CC(CCc1ccccc1)OC1OC(CO)C(O)C(O)C1O` (configuration not stated), the EC50 was 73 µM. As for `CC1CC(=O)c2c(cc3c(-c4c(O)cc(O)c5c(O)c6c(cc45)OC(C)CC6=O)c(O)cc(O)c3c2O)O1` (configuration not stated), the EC50 was 21.1 µM. With `O=C(Cc1nnc(NC(=O)c2ccccc2)s1)N/N=C\c1ccc(O)c(O)c1`, the EC50 was > 100 µM (inactive). In the case of `Cc1ccc(N2C(=O)/C(=C/c3ccc(CN(CCC#N)S(C)(=O)=O)o3)C(=O)NC2=S)cc1`, the EC50 is 40.7 µM. With `O=c1[nH]c(/C=C\c2ccc(O)c(O)c2)nc(O)c1[N+](=O)[O-]`, the EC50 was > 100 µM (inactive). As for `Cc1cc(=O)[nH]c(N/N=C/c2ccc(O)c(O)c2)n1`, the EC50 was 65.7 µM. For `N#C/C(=C\c1coc2ccc(O)cc2c1=O)C(=O)Nc1nc2ccccc2s1`, the EC50 was 91.1 µM. The figure for `COc1cc(/C=C(\C#N)C(=O)c2ccc(O)c(O)c2)cc(I)c1O` is > 100 µM (inactive); for `CC1(C(=O)NNC(=O)c2ccc(=O)oc2)CC1Br` (configuration not stated) it is 57.9 µM; for `C[N+](C)(C)C(Cc1ccccc1)C(=O)[O-]` (configuration not stated) it is 59.7 µM. In the case of `Cc1ccc(/C=C2/SC(=O)NC2=S)o1`, the EC50 is 55.9 µM.

`O=C(CN1C(=O)/C(=C/c2ccco2)SC1=S)Nc1ccc(C(=O)O)c(O)c1`: the EC50 was > 100 µM (inactive). `O=C(N/N=C/c1ccc(O)cc1O)C(=O)N/N=C/c1ccc(O)cc1O`: the EC50 is > 100 µM (inactive).

In the case of `CCN1/C(=C/C=C/c2oc3ccc(-c4ccccc4)cc3[n+]2CC)Oc2ccc(-c3ccccc3)cc21`, the EC50 is 24.5 µM. With `O=C(CN1CCN(c2ccccc2F)CC1)c1ccc(O)c(O)c1`, the EC50 was > 100 µM (inactive). For the compound `Cc1ccc(C)c(NC(=O)CCNS(=O)(=O)c2ccc3[nH]c(=O)oc3c2)c1`, the EC50 was > 100 µM (inactive). For the compound `NS(=O)(=O)c1ccc(-c2ccc(/C=C3\SC(=S)N(C4CCS(=O)(=O)C4)C3=O)o2)cc1` (configuration not stated), the EC50 is 17.6 µM. Consider `O=C(Nc1ccc(Cl)c(C(F)(F)F)c1)NC1CC2CCCC(C1)N2Cc1ccccc1` (configuration not stated), for which the EC50 was > 100 µM (inactive).

For the compound `Oc1ccc(/C=N/N=C/c2ccc(O)c(O)c2)cc1O`, the EC50 is 68 µM. For `O=C(CSc1nc2ccccc2o1)N/N=C/c1ccc(O)c(O)c1`, the EC50 was 67.5 µM. `NS(=O)(=O)c1cc(C(=O)NC2CCSc3ccccc32)ccc1Cl` (configuration not stated): the EC50 was 63.9 µM.

Consider `NNC(=O)c1cc(O)c(O)c(O)c1`, for which the EC50 is 69.3 µM.

In the case of `Cc1ccc(NC(=O)CCNS(=O)(=O)c2ccc3[nH]c(=O)oc3c2)cc1F`, the EC50 was > 100 µM (inactive). The figure for `CN(CCO)c1ccc(C=NNc2ccc([N+](=O)[O-])cc2S(=O)(=O)Nc2ccccc2C(=O)O)cc1` is 26 µM. `O=C(N/N=C/c1cn(Cc2cccc(F)c2)c2ccccc12)c1cc(O)cc(O)c1`: the EC50 is 53.3 µM. Consider `C=CCn1c(SCC(=O)c2ccc(O)c(O)c2)nnc1-c1cccc(OC)c1`, for which the EC50 is 47.8 µM. On to `Cc1ccc(C)c(S(=O)(=O)Nc2ccc(O)c(Sc3ncn[nH]3)c2)c1`, for which the EC50 is 13.1 µM.

`NS(=O)(=O)c1ccc(NC(=S)NC(=O)/C=C/c2ccco2)cc1`: the EC50 is > 100 µM (inactive). Take `O=C(CN1C(=O)/C(=C/c2ccco2)SC1=S)NC1CCS(=O)(=O)C1` (configuration not stated): the EC50 is > 100 µM (inactive).

Consider `COc1ccccc1CNC(=O)CCNS(=O)(=O)c1ccc2[nH]c(=O)oc2c1`, for which the EC50 was 49 µM. `O=C1CC(c2ccc(O)c(O)c2)Oc2cc(O)cc(O)c21` (configuration not stated): the EC50 is 60.3 µM. Turning to `O=C(CCCN1C(=O)/C(=C\c2ccco2)SC1=S)Nc1ccc(O)cc1C(=O)O`, the EC50 was 44.7 µM. With `CCn1nc(C)c(CN2CCC(C(=O)Nc3cccc(-c4cccc(F)c4)c3)CC2)c1C`, the EC50 was 65.1 µM. In the case of `O=C1C=C(O)c2c(O)cc(O)c(O)c2C1=O`, the EC50 is > 100 µM (inactive). The figure for `COc1ccc(NC(=O)CCNS(=O)(=O)c2ccc3[nH]c(=O)oc3c2)cc1Cl` is 54 µM. As to `Cc1cc(O)c2c(c1O)C(=O)[C@]13C(=C2O)C(=O)[C@@H]2[C@@H](O)[C@H]1[C@@H]1[C@H](O)[C@H]3C(=O)C3=C(O)c4c(O)cc(C)c(O)c4C(=O)[C@]312`, the EC50 was 66.3 µM. As for `Cc1cc(C)c(S(=O)(=O)Nc2ccc(O)c(Sc3ncn[nH]3)c2)cc1C`, the EC50 was 55 µM. Take `O=[N+]([O-])c1cc(S(=O)(=O)c2ccc(O)c([N+](=O)[O-])c2)ccc1O`: the EC50 is > 100 µM (inactive). For `O=C(COC(=O)c1ccc(Br)o1)Nc1ncc([N+](=O)[O-])s1`, the EC50 was 60.5 µM. On to `O=C(O)Cc1ccc(O)c(O)c1`, for which the EC50 was > 100 µM (inactive). Regarding `CC(C)c1ccc(NC(=O)NC2CCN(CC(=O)Nc3cccc4ccccc34)CC2)cc1`, the EC50 was 55.9 µM.

On to `Oc1cc2c(cc1O)C1c3ccc(O)c(O)c3OCC1(O)C2` (configuration not stated), for which the EC50 is 60.4 µM.

For the compound `O=C1NC(=S)NC(=O)C1=Cc1ccc2c(c1)CCN2CCCCl`, the EC50 was 57.5 µM. In the case of `O=C(CCO)c1ccc(O)cc1`, the EC50 was 18.9 µM. As for `Cc1ccc(NC(=O)CN(C)S(=O)(=O)c2ccc3[nH]c(=O)oc3c2)c(C)c1`, the EC50 was 64.6 µM. The value for `CCOC(=O)CN1C(=O)/C(=C2\SC(=S)N(NC(=O)c3cccnc3)C2=O)c2ccccc21` was 35.1 µM; that for `Cc1cc(/C=C2\SC(=S)NC2=O)c(C)[nH]1` was 61.1 µM; that for `O=C1/C(=C/C=C/c2ccco2)SC(=S)N1NS(=O)(=O)c1ccccc1` was > 100 µM (inactive). Take `COc1ccc(S(=O)(=O)Nc2ccc(O)c(Sc3ncn[nH]3)c2)cc1`: the EC50 was 68.6 µM.

As for `CSC1=NSC2=NC(=O)/C(=C/c3coc4ccc(O)cc4c3=O)C(=N)N12`, the EC50 is 27.2 µM. For the compound `Oc1ccc(-c2cn3c(n2)SCC3)cc1O`, the EC50 was 55.6 µM.

As to `CCOc1cc(/C=C2\CCC/C(=C\c3cc(Cl)c(O)c(OCC)c3)C2=O)cc(Cl)c1O`, the EC50 was > 100 µM (inactive). The figure for `O=c1cc(-c2ccc(O)cc2)oc2c(O)c(O)c(O)c(O)c12` is 59.6 µM; for `Cc1ccc(NC(=O)CCNS(=O)(=O)c2ccc3[nH]c(=O)oc3c2)c(Cl)c1` it is 26.3 µM. For `O=C(O)CC(C(=O)O)N1C(=O)/C(=C/c2ccc(-c3nc4ccccc4s3)o2)SC1=S` (configuration not stated), the EC50 was 60.8 µM. In the case of `S=C(NCc1ccccc1)NC1CCSc2ccccc21` (configuration not stated), the EC50 is > 100 µM (inactive).

With `O=C(NNC(=S)NC(=O)c1cccs1)c1ccc(O)cc1`, the EC50 is 36.8 µM.

For the compound `Cc1c(CN2CCC(C(=O)Nc3cccc(-c4cccc(Cl)c4)c3)CC2)cnn1C`, the EC50 was 71.6 µM.

Regarding `COc1cccc(CNC(=O)CCNS(=O)(=O)c2ccc3[nH]c(=O)oc3c2)c1`, the EC50 was > 100 µM (inactive). Turning to `N#Cc1cccc(NC(=O)CCNS(=O)(=O)c2ccc3[nH]c(=O)oc3c2)c1`, the EC50 was 89.7 µM.

With `Cc1ccc(C(=O)Nc2nnc(CC(=O)N/N=C/c3ccc(O)c(O)c3)s2)cc1`, the EC50 is 49.7 µM. With `O=C(O)C(c1ccccc1)N1C(=O)/C(=C\c2ccc(O)c(O)c2)SC1=S` (configuration not stated), the EC50 is 62.9 µM. With `COc1ccc(OC)c(S(=O)(=O)Nc2ccc(O)c(Sc3ncn[nH]3)c2)c1`, the EC50 was 57.5 µM. With `O=C(CSc1n[nH]c(-c2ccccc2)n1)c1ccc(O)c(O)c1`, the EC50 was 65.3 µM. `COc1cccc(C(C)NC(=O)Nc2cccc(C(F)(F)F)c2)c1` (configuration not stated): the EC50 is > 100 µM (inactive).

Take `Nc1cc2nc3ccccc3oc-2cc1=O`: the EC50 is 57.2 µM. As for `O=C1/C(=C/C=C/c2ccco2)SC(=S)N1c1ccc(O)cc1`, the EC50 was 61.8 µM.

As for `O=C1NC(=S)NC(=O)C1=Cc1ccc(Br)s1`, the EC50 was 59.6 µM. For the compound `CNc1nnc(-c2cc3ccccc3oc2=O)s1`, the EC50 is > 100 µM (inactive). With `CN(C)c1ccc(N=Nc2nc3ccccc3n2C)cc1`, the EC50 is 48.3 µM. As to `CCOC(=O)C(C)Sc1nc2c(c(=O)[nH]c(=O)n2C)n1C/C=C(/C)Cl` (configuration not stated), the EC50 is 84.8 µM.

As for `N#C/C(=C\c1ccc(O)c(O)c1)C(=O)c1ccc(O)c(O)c1`, the concentration for a half-maximal effect (EC50) was 8.03 µM. Turning to `CN(CC(=O)Nc1cccc(Cl)c1)S(=O)(=O)c1ccc2[nH]c(=O)oc2c1`, the EC50 was > 100 µM (inactive).

For `COc1ccc(OC)c(NC(=O)CCNS(=O)(=O)c2ccc3[nH]c(=O)oc3c2)c1`, the EC50 was > 100 µM (inactive).

On to `Oc1ccc(C[C@H]2NCCc3cc(O)c(O)cc32)cc1O`, for which the EC50 is > 100 µM (inactive). Take `Cc1ccc(CN2C3CCCC2CC(NC(=S)NCc2ccccc2)C3)cc1` (configuration not stated): the EC50 is > 100 µM (inactive). As for `O=C(N/N=C/c1ccc([N+](=O)[O-])o1)c1sc2ccccc2c1Cl`, the EC50 was > 100 µM (inactive). With `Oc1ccc(/C=N/Nc2cc(N3CCCC3)nc(N3CCCC3)n2)cc1O`, the EC50 was > 100 µM (inactive). For `O=C(CCN1C(=O)/C(=C/c2ccco2)SC1=S)Nc1ccc(C(=O)O)c(O)c1`, the EC50 is 27.6 µM. For the compound `O=c1oc2cc(O)ccc2s1`, the EC50 was 12 µM.

With `CC(C(=O)Nc1ccc(C(=O)O)c(O)c1)N1C(=O)/C(=C\c2ccco2)SC1=S` (configuration not stated), the EC50 was 76.8 µM. As for `COc1ccc(N=C2SC(C(N)=O)CC(=O)N2CCc2ccc(OC)c(OC)c2)cc1` (configuration not stated), the EC50 was 26.1 µM.

Turning to `CCN1/C(=C/c2ccc3cc(C)ccc3[n+]2CC)Sc2ccc3sccc3c21`, the 50% effective concentration (EC50) is 65.3 µM. Consider `COc1cc(OC)c(NC(=O)CN(C)S(=O)(=O)c2ccc3[nH]c(=O)oc3c2)cc1Cl`, for which the 50% effective concentration (EC50) was 69.8 µM. `O=C(N/N=C/c1ccc(O)c(O)c1)N/N=C/c1ccc(O)c(O)c1`: the 50% effective concentration (EC50) was 29.6 µM. The figure for `Oc1ccc(-c2csc(Nc3ccccn3)n2)cc1O` is 45.8 µM; for `O=S(=O)(c1cc(O)ccc1O)c1cccc2c(S(=O)(=O)c3cc(O)ccc3O)cccc12` it is 24.3 µM; for `Cc1ccc(NS(=O)(=O)c2ccc3[nH]c(=O)oc3c2)c(C)c1` it is 89 µM. Regarding `O=C(NN1C(=O)/C(=C/C=C/c2ccco2)SC1=S)c1ccncc1`, the EC50 is > 100 µM (inactive).

(Values after PubChem BioAssay AID488878 (Sanford-Burnham Center for Chemical Genomics, 2010).)
